Reference: US20130317037A1, “METHOD OF ADMINISTRATION AND TREATMENT” (GlaxoSmithKline Intellectual Property Development Limited, priority 2010, published 2013)
Read-outs that look alike come from different tables or passages of the source.

Assays:
DU4475 = test: Panel A proliferation assay (CellTiter-Glo); HER2 2 copies, KRAS WT, PIK3CA WT; format: cell-based, human; conditions: for IC50: Homo sapiens, DU-4475
Method: (§1) A total of 15 breast cancer cell lines were used in this study. […] Cells of each line were seeded into a 384-well microtiter plate at two cell densities. Low density ranges were 300-1800 cells/well, and a high density was 600 to 3600 cells/well). The plating density was determined by the rate of proliferation of the cell line in the absence of any inhibitor and varied amongst cell lines. High plating densities were double that of low density. Each cell density was plated in triplicate. […] In addition, there were 24 wells of dimethyl sulfoxide (DMSO)-treated controls at each density. After seeding, the cells were incubated at 37° C. in 5% CO2 for 24 hours. […] After a 72 h incubation, an equal volume of the CellTiter-Glo (CellTiter-Glo Luminescent Cell Viability Assay, Promega, Madison, Wis.) to that of the cell culture medium was added into each well of the plate. After the contents were mixed to induce cell lysis and stabilization, cell luminescence was recorded using a SpectraMax M5^e (Molecular Devices, Sunnyvale, Calif., USA)
(§2) Specifically, the midpoint of the growth window (the gIC50) falls half way between the number of cells at the time of compound addition (T=0) and the growth of control cells treated with DMSO. The gIC50 value serves as a metric for measuring the inhibition of proliferation in cancer cells. The curves for each seeding density for each cell line were manually inspected for both data quality and appropriateness of curve fitting. Where the starting data were poor the curve and subsequent gIC50s were excluded from further analysis. Cell line seedings were considered of poor quality when the r^2 value of the fitted curve was <0.75. Finally, where data quality permits, the Ymin values (defined as the maximum growth inhibition relative to the cell density at Time-zero) were calculated as a measure of cytotoxicity where data were of reasonable quality.

MDA-MB-468 = test: as above; format: cell-based, human; conditions: for IC50: Homo sapiens
Method: as §1, §2

NCI/ADR-RES = test: as above; format: cell-based, human; conditions: for IC50: Homo sapiens
Method: as §1, §2

T-47D = test: Panel A proliferation assay (CellTiter-Glo); HER2 Gain <5, KRAS WT, PIK3CA p.H1047R; format: cell-based, human; conditions: for IC50: Homo sapiens, T47D
Method: (§3) A total of 15 breast cancer cell lines were used in this study. These cells were cultured in RPMI-1640 and supplemented with 5% or 10% fetal bovine serum, 2 mM GlutaMAX™ and 1 mM sodium pyruvate, or in growth medium recommended by the suppliers [American Type Culture Collection, Manassas, Va., USA; Developmental Therapeutics Program, National Cancer Institute, Bethesda, Md., USA; German Collection of Microorganisms and Cell Cultures (DSMZ), Braunschweig, Germany; European Collection of Cell Cultures (ECACC), Porton Down, UK]. Cells of each line were seeded into a 384-well microtiter plate at two cell densities. Low density ranges were 300-1800 cells/well, and a high density was 600 to 3600 cells/well). The plating density was determined by the rate of proliferation of the cell line in the absence of any inhibitor and varied amongst cell lines. High plating densities were double that of low density. Each cell density was plated in triplicate. In total there were 30 wells to be treated with increasing concentrations of Compound B for each cell line at each density. In addition, there were 24 wells of dimethyl sulfoxide (DMSO)-treated controls at each density. After seeding, the cells were incubated at 37° C. in 5% CO2 for 24 hours. Subsequently, Compound B was added to each cell line with 10 concentrations. The dosing solution of Compound B was first prepared in DMSO at a master stock concentration of 10 mM. […] were then made of the stock solution to give a range of working stock concentrations; 10.00 mM, 3.164 mM, 1.001 mM, 316.9 μM, 100.3 μM, 31.74 μM, 10.04 μM, 3.178 μM, 1.006 μM and 318.3 nM. The working stock concentrations of Compound B were then dispensed into the seeded cancer cell lines using a Biomek FX liquid handler to give final treatment concentrations of 0.1% of the stock concentration. A similar volume of DMSO without Compound B was dispensed into the 24 control wells of each seeding density at a concentration of 0.1%. Also, a zero-time plate prepared with a similar cell seeding was read for each cell line at each seeding density immediately after the addition of the DMSO control. After a 72 h incubation, an equal volume of the CellTiter-Glo (CellTiter-Glo Luminescent Cell Viability Assay, Promega, Madison, Wis.) to that of the cell culture medium was added into each well of the plate. After the contents were mixed to induce cell lysis and stabilization, cell luminescence was recorded using a SpectraMax M5^e (Molecular Devices, Sunnyvale, Calif., USA)
The luminescence of Compound B treated cells was compared relative to the average of the 24 DMSO-treated control wells at each cell density for every concentration of Compound B for all triplicate wells. The percent intensity values were used in model 205 of XLfit in Microsoft Excel to calculate gIC50s for the low and high seeding density (a 4 parameter logistical fit). Specifically, the midpoint of the growth window (the gIC50) falls half way between the number of cells at the time of compound addition (T=0) and the growth of control cells treated with DMSO. The gIC50 value serves as a metric for measuring the inhibition of proliferation in cancer cells. […] Finally, where data quality permits, the Ymin values (defined as the maximum growth inhibition relative to the cell density at Time-zero) were calculated as a measure of cytotoxicity where data were of reasonable quality.

ZR-75-1 = test: Panel A proliferation assay (CellTiter-Glo); HER2 2 copies, KRAS WT, PIK3CA WT; format: cell-based, human; conditions: for IC50: Homo sapiens
Method: as §3
(§4) The luminescence of Compound B treated cells was compared relative to the average of the 24 DMSO-treated control wells at each cell density for every concentration of Compound B for all triplicate wells. The percent intensity values were used in model 205 of XLfit in Microsoft Excel to calculate gIC50s for the low and high seeding density (a 4 parameter logistical fit). Specifically, the midpoint of the growth window (the gIC50) falls half way between the number of cells at the time of compound addition (T=0) and the growth of control cells treated with DMSO. The gIC50 value serves as a metric for measuring the inhibition of proliferation in cancer cells. The curves for each seeding density for each cell line were manually inspected for both data quality and appropriateness of curve fitting. Where the starting data were poor the curve and subsequent gIC50s were excluded from further analysis. Cell line seedings were considered of poor quality when the r^2 value of the fitted curve was <0.75. Finally, where data quality permits, the Ymin values (defined as the maximum growth inhibition relative to the cell density at Time-zero) were calculated as a measure of cytotoxicity where data were of reasonable quality.

MDA-MB-175-VII = test: as above; format: cell-based, human; conditions: for IC50: Homo sapiens
Method: as §3, §4

PI3K family of enzymes = test: Selectivity in a large panel of protein kinases; format: biochemical
[1] = high seeding density, 72 h, read-out: High Density gIC50
[2] = low seeding density, 72 h, read-out: Low Density gIC50
[3] = mean of low and high density, read-out: Mean gIC50
[4] = high density, % of cells at T = 0
[5] = low density, % of cells at T = 0

## COc1ncc(-c2ccc3nccc(-c4ccnnc4)c3c2)cc1NS(=O)(=O)c1ccc(F)cc1F [Compound B, 2,4-difluoro-N-{2-(methyloxy)-5-[4-(4-pyridazinyl)-6-quinolinyl]-3-pyridinyl}benzenesulfonamide]
DU4475; DU4475, high density, % of cells at T = 0
  High Density Y-Min: −8.4%
DU4475; DU4475, low density, % of cells at T = 0
  Low Density Y-Min: 1.2%
DU4475; DU4475, high seeding density, 72 h, read-out: High Density gIC50
  IC50: 20.6 nM
DU4475; DU4475, low seeding density, 72 h, read-out: Low Density gIC50
  IC50: 3.6 nM
DU4475; DU4475, mean of low and high density, read-out: Mean gIC50
  IC50: 12.1 nM
MDA-MB-468; MDA-MB-468, high seeding density, 72 h, read-out: High Density gIC50
  IC50: 32.1 nM
MDA-MB-468; MDA-MB-468, low seeding density, 72 h, read-out: Low Density gIC50
  IC50: 37.2 nM
MDA-MB-468; MDA-MB-468, mean of low and high density, read-out: Mean gIC50
  IC50: 34.9 nM
MDA-MB-468; MDA-MB-468, high density, % of cells at T = 0
  High Density Y-Min: 35.5%
MDA-MB-468; MDA-MB-468, low density, % of cells at T = 0
  Low Density Y-Min: 27.9%
NCI/ADR-RES; [1]
  IC50: 25.4 nM
NCI/ADR-RES; [2]
  IC50: 51.6 nM
NCI/ADR-RES; [3]
  IC50: 38.5 nM
NCI/ADR-RES; [4]
  High Density Y-Min: 98.9%
NCI/ADR-RES; [5]
  Low Density Y-Min: 518.6%
T-47D; [1]
  IC50: 1.8 nM
T-47D; [2]
  IC50: 1.1 nM
T-47D; [3]
  IC50: 1.45 nM
T-47D; [4]
  High Density Y-Min: 103.6%
T-47D; [5]
  Low Density Y-Min: 104.6%
ZR-75-1; ZR-75-1, high seeding density, 72 h, read-out: High Density gIC50
  IC50: 0.9 nM
ZR-75-1; ZR-75-1, low seeding density, 72 h, read-out: Low Density gIC50
  IC50: 0.8 nM
ZR-75-1; ZR-75-1, mean of low and high density, read-out: Mean gIC50
  IC50: 0.85 nM
ZR-75-1; ZR-75-1, high density, % of cells at T = 0
  High Density Y-Min: 22.1%
ZR-75-1; ZR-75-1, low density, % of cells at T = 0
  Low Density Y-Min: 19.8%
MDA-MB-175-VII; [1]
  IC50: 1.1 nM
MDA-MB-175-VII; [2]
  IC50: 1.7 nM
MDA-MB-175-VII; [3]
  IC50: 1.4 nM
MDA-MB-175-VII; [4]
  High Density Y-Min: 12.2%
MDA-MB-175-VII; [5]
  Low Density Y-Min: 19.8%
PI3K family of enzymes
  selectivity for the PI3K family of enzymes: good selectivity
